Measurements reported in patent US6511827B1 (Merck & Co., Inc., priority 1997, dated 2003).
pKd: −log10 of the molar value.

Assays:
galanin receptors = details: hypothalamus, ventral hippocampus, basal forebrain, spinal cord, pancreas and pituitary; cited from earlier work
human GALR3 = test: Specific binding of ^125I-galanin radioligands to membranes of COS-7 cells transfected with GALR3 clones, as a function of membrane protein
Experimental: Mammalian COS-7 cells were transfected by electroporation. COS-7 cells (1×10^7) were suspended in 0.85 ml of Ringers' buffer and […] of the GALR3-2 or GALR3—3 expression plasmid was added to a 0.4 mm electroporation cuvette (Bio-Rad, Hercules, Calif.). Current was applied ([…], 260 V) using a Bio-Rad Electroporator device and the cells were transferred to a T-180 flask (Corning). Expression was allowed to proceed for 72 hrs.
Membranes were prepared from transfected cells following dissociation in enzyme-free dissociation solution (Specialty Media, Lavallette, N.J.) by disruption in a Dounce homogenizer in ice-cold membrane buffer (10 mM Tris, pH 7.4, 10 mM PMSF, […], and […]). After a low speed (1100×g for 10 min. at 4° C.) and a high speed centrifugation (38,700×g for 15 min. at 4° C.), membranes were resuspended in buffer and protein concentration determined (Bio-Rad assay kit). […] Reactions were initiated by the addition of membranes and the incubation was allowed to proceed at room temperature for 1 hour. […] Titration of membrane protein from 1 to 50 μg was conducted. […] Incubations were terminated by rapid filtration through GF/C filters which had been presoaked with 0.1% polyethylamine using a TOMTEC (Orange, Conn.) cell harvester. The results were analyzed using the Prism software package (GraphPad, San Diego, Calif.).

Substance | pKd (galanin receptors) | Specific binding of radioligand (human GALR3; Clone GALR3-3, membrane protein 5 μg) [cpm] | Specific binding of radioligand (human GALR3; Clone GALR3-3, membrane protein 10 μg) [cpm] | Specific binding of radioligand (human GALR3; Clone GALR3-3, membrane protein 20 μg) [cpm] | Specific binding of radioligand (human GALR3; Clone GALR3-3, membrane protein 50 μg) [cpm]
^125I-galanin | ~9.00 | – | – | – | –
^125I-human galanin | – | 211 | 407 | 886 | 2061
